Molecular target: T1, porcine pancreatic elastase (PPE) (Sus scrofa, UniProt P00772)
T1 construct: gene CELA1; commercial native enzyme from porcine pancreas (Sigma Aldrich); PDB 1QGF printed for the docking model of PPE
Test: spectrophotometric, p-nitroaniline release at […] nm
Assay type: biochemical
Settings: read-out: IC50 Values / EI (μg/mL) (converted)

T1 sequence (P00772 27-266): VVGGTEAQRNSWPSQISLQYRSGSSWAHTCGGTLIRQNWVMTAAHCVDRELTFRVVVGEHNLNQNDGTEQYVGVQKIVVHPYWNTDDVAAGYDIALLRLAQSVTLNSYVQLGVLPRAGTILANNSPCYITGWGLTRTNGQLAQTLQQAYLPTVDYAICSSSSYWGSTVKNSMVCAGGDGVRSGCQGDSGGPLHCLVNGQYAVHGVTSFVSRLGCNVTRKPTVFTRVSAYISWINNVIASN

IC50: 759 µM
Compound: O=C(O[C@@H]1Cc2c(O)cc(O)cc2O[C@@H]1c1cc(O)c(O)c(O)c1)c1cc(O)c(O)c(O)c1 [epigallocatechin gallate]
